Assay results reported in patent US12644203B2, “Cellular phenotype screening method” (ThinkCyte, Inc., priority 2020, dated 2026).

Key:
Format in all cases: cell-based
[1] = test system: nuclear localization of NF-κB induced by LPS in THP1 cells; test: Cellular phenotype screening in a 96-well microplate: imaging cell sorter sorting, then enrichment of first barcode nucleic acid sequences; conditions: sorted for absence of NF-κB nuclear localization under LPS stimulation; value above 1 = more concentrated than before sorting; TAK242 at 30 μM; FIG. 21
Description: In accordance with the schematic diagram illustrated in FIG. 18, a search was carried out for test targets which cause a desired phenotypic change (in the example of FIG. 18, test substances which inhibit nuclear localization of NF-κB induced by LPS).
Specifically, in each well of a 96-well microplate, the first barcode nucleic acids were attached to cells (THP1 cells) according to the method described in Reference Example 1 and further brought into contact with test substances. At this time, different types and concentrations of the test substance and different types of the first barcode nucleic acids were used in each well. Due to this, 96 types of test targets (24 types of test substances×4 types of concentrations) were associated with 96 types of first barcode nucleic acids which are attached to the cells (THP1 cells). […]
Next, in the same manner as the examples described above, a single cell analysis was performed on the cell mixture solution sorted and recovered by the imaging cell sorter. Specifically, when reading out the DNA barcodes modifying each cell and cell-derived genetic information, the Chromium Controller apparatus and the Single Cell 3′ Reagent Kit v3 manufactured by 10× Genomics, which is a single cell analysis technology using a droplet technique as in Example 5 and Example 6, were used. […]

[2] = test system: nuclear localization of NF-κB in THP1 cells; test: Nuclear localization score of sorted cells by image flow cytometry; conditions: cells treated with LPS and test substance (TAK242 30 μM); higher value indicates higher degree of nuclear localization; FIG. 22
Description: The photographic images of the cells were captured by an image flow cytometry and the nuclear localization scores were also calculated by the imaging flow cytometry. Regarding the nuclear localization scores, a higher value indicates a higher degree of nuclear localization.

[3] = test system: NFκB protein nuclear localization in THP1 cells; test: NFκB protein localization by immunostaining and fluorescent light microscope in cells treated with the drug; conditions: LPS 2 μg/mL, 2 hours at 37 degrees, fluorescent light microscope, FIG. 7
Description: Next, cells collected by centrifugation in advance were added to the tube 1 and incubated. The cells used at this time were THP1 cells and the cell concentration was set to 1×10^7 cells/mL. The incubation was carried out for 5 minutes at room temperature.
Cells were resuspended in RPM1-1640 medium with 10% FBS and 50 μM 2-mercaptoethanol in the tube 1 and the tube 2, respectively. Next, as a drug, lipopolysaccharide (LPS) suspended in dimethyl sulfoxide (DMSO) was added to tube 1 only, at a final concentration of 2 μg/mL. In the tube 2, only DMSO, the solvent for the drug, was added. Next, the tube 1 and the tube 2 were incubated for 2 hours at 37 degrees in CO2, respectively. Through the experiment up to here, the drug condition whether the drug LPS is present or not, was respectively associated to each of the cells by corresponding each cell to the first barcode nucleic acid type A or the second barcode nucleic acid type B.
Next, some cells were collected from the tube 1 and the tube 2, respectively. […]

Compound | enrichment level of the first barcode nucleic acid sequence of the sorted cells [1] | nuclear localization score [2] | localization of NFκB protein [3]
C=C1C(=O)O[C@@H]2/C=C(\C)CC/C=C(\C)CC[C@@H]12 [Costunolide] | significantly enriched | 0.23 | –
CCOC(=O)C1=CCCC[C@H]1S(=O)(=O)Nc1ccc(F)cc1Cl [TAK242] | approximately 1.5 fold | 0.92 | –
lipopolysaccharide [LPS] | – | 0.30 | almost all of the NFκB protein was localized in the nucleus
